Test results published in publication PMC8761912, “Cryptosporidium parvum Pyruvate Kinase Inhibitors With in vivo Anti-cryptosporidial Efficacy” (Frontiers in Microbiology, 2022).
Read-outs that look alike come from different tables or passages of the source. Marks after values point to notes of the source that are not given here.

B1: rCpPyK (Cryptosporidium parvum Iowa II) (protein)
chain: MISNDHLKRLASTSAVMSCTLGKATCLGMDKICSPLADNDVTQRKTQIICTIGPSCNNVESLIGLIDKGMSVARLNFSHGDHESHFKTLQNIREAAKARPHSTVGIMLDTKGPEIRTGMLEGGKPIELKAGQTLKITTDYSMLGNSECISCSYSLLPKSVQIGSTVLIADGSLSTQVLEIGDDFIVCKVLNSVTIGERKNMNLPGCKVHLPIIGDKDRHDIVDFALKYNLDFIALSFVQNGADVQLCRQIISENTQYSNGIPSSIKIISKIENLEGVINFDSICSESDGIMVARGDLGMEIPPEKIFVAQKCMISKCNVAGKPVVTATQMLESMIKSNRPTRAEMTDVANAVLDGSDCVMLSGETANGAFPFDAVNVMSRVCAQAETCIDYPVLYHAIHSSVPKPVAVPEAIACSAVESAHDVNAKLIITITETGNTARLISKYRPSQTIIACTAKPEVARGLKIARGVKTYVLNSIHHSEVVISNALALAKEESLIESGDFAIAVHGVKESCPGSCNLMKIVRCP

Tests used:
[1] = Physicochemical properties adapted from PubChem; details: based on Supplementary Table 2 properties
From the text: Supplementary Table S2. Physicochemical properties of identified CpPyK inhibitors (Adapted from: https://pubchem.ncbi.nlm.nih.gov).
NSC Molecular Molecular Number of Number of Number of Polar number IUPAC name formula weight cLog(p) Hydrogen bond Hydrogen bond rotatable surface donors acceptors bonds area (Å²) […]

[2] = molecular target: recombinant CpPyK (rCpPyK) protein (Cryptosporidium parvum, UniProt Q5CSM7); experiment: rCpPyK enzymatic activity inhibition assay (ATP detection, Cell Titer-Glo luminescence); type: biochemical
Protocol: (§1) The in vitro enzymatic activity of the rCpPyK protein was determined by quantitating the amount of ATP produced by the transfer of a phosphate group from phosphoenolpyruvate to adenosine diphosphate (ADP) in the presence of varying concentrations of the recombinant protein (Figure 1A). A typical assay contained 0.5 mM phosphoenolpyruvate, 0.6 mM ADP, 50 mM Tris buffer pH 7.5, 60 mM MgSO4, 100 mM KCl, and varying concentrations of rCpPyK incubated for 3 h at room temperature. The ATP generated was detected in a reaction volume of 50 μl in white opaque-walled 96 well plates by the luciferase-based Cell Titer-Glo 2.0 reagent (Promega) following the manufacturer’s instructions. The enzyme kinetics of rCpPyK were determined by using varying phosphoenolpyruvate (0–8 mM) and ADP (0–2 mM) concentrations in an enzymatic reaction catalyzed by a fixed concentration of the recombinant protein (6 ng/μl). In all assays, reaction mixtures without rCpPyK were included as negative controls. Three independent assays were performed for each experiment, and samples were run in triplicate. The luminescence generated was recorded using a multi-mode microplate reader (Spectra Max iD3; Molecular Devices, United States). GraphPad PRISM® v8 software was used to fit the Michaelis–Menten model directly to the substrate-velocity data to determine the enzymatic kinetic parameters for rCpPyK.
The Diversity Set VI chemical library (Supplementary Table 1) was obtained from the National Cancer Institute (NCI)/Developmental Therapeutics Program (DTP) Open Repository collection of chemical compounds.^1 Compounds were individually reconstituted in molecular biology grade dimethyl sulfoxide (DMSO) from Sigma-Aldrich and stored at −20°C. From the library, 1,424 compounds were screened in 96-well plates using the rCpPyK catalyzed enzyme assay to identify potential CpPyK inhibitors. The reactions were performed in 50 μl reaction volume containing 0.5 mM phosphoenolpyruvate, 0.6 mM ADP, 50 mM Tris buffer pH 7.5, 60 mM MgSO4, 100 mM KCl, and 6 ng/μl of rCpPyK protein with or without compound. The concentration of DMSO in all reaction mixtures was 1% (v/v). Control reactions without rCpPyK protein were included for background subtraction. Following 3 h of incubation at room temperature, an equal volume of the Cell Titer-Glo 2.0 reagent was added to each well, and the luminescence produced was recorded as relative luminescence units (RLU) after 10 min of incubation using a multi-mode microplate reader (Spectra Max iD3; Molecular Devices, United States). The mean percent inhibition (MPI) of rCpPyK activity by each compound was derived by dividing the difference in luminescence (RLU) between the compound-treated wells and the DMSO-treated wells by the luminescence of the DMSO-treated wells and multiplying the product by 100:
(1) MPI=[(MeanRLUDMSO-treated-MeanRLUCompound-treated)÷MeanRLUDMSO-treated]×100.
Half maximal inhibitory concentration (IC50) values were determined by applying a non-linear regression analysis curve fit to the mean dose-response data for varying concentrations of each compound using GraphPad PRISM® v8. Reactions were performed in triplicate and repeated at least thrice.

Solubility = type: physicochemical; details: solvent not stated
[3] = In vitro compound cytotoxicity assay (WST-1); type: cell-based; details: human, uninfected HCT-8 cells
Protocol: Compounds were tested for cytotoxicity in human ileocecal colorectal adenocarcinoma cells [HCT-8 (HRT-18); ATCC® CCL-244™, CVCL_2478] by using the cell proliferation reagent WST-1 (Roche) according to the manufacturer’s protocol. The WST-1 assay is a quantitative colorimetric assay for measurement of metabolically active cells. This assay is based on the reduction of the tetrazolium salt (WST-1) by viable cells. About 5 × 10^4 HCT-8 cells were seeded per well in 96-well plates and grown overnight in 200 μl of RPMI-1640 medium (without phenol red) (Gibco) supplemented with 2.5 g/L of glucose, 1 mM sodium pyruvate, 1.5 g/L of sodium bicarbonate, 10% heat-inactivated FBS (Gibco), and 1 × Antibiotic-Antimycotic (Gibco) at 37°C with 5% CO2 in a humidified incubator. Upon reaching 80–90% confluency, cells were treated with the chemical compounds reconstituted in DMSO for 24 h. The volume of DMSO was kept below 1% of the total culture volume in all the wells to avoid DMSO cytotoxicity. Control wells received equivalent volumes of DMSO used in the reconstituted compounds. After 24 h of culture, 10 μl of the WST-1 reagent was added to each well, and the plates were incubated for 1 h at 37°C with 5% CO2 under dark conditions. The plates were shaken thoroughly and 150 μl of the medium from each well was transferred to a new clear flat-bottom black 96-well plate (Corning). Absorbance was read at a test wavelength of 440 nm and a reference wavelength of 690 nm using a multi-mode microplate reader (Spectra Max iD3; Molecular Devices, United States). The mean percent toxicity (MPT) of each compound was derived by dividing the difference in absorbance (OD) between the compound-treated cells and the DMSO-treated cells by the absorbance from the DMSO-treated cells and multiplying the product by 100:
(2) MPT=[(MeanODDMSO-treated-MeanODCompound-treated)÷MeanODDMSO-treated]×100.
The half maximal cytotoxic concentration (CC50) values were determined by using non-linear regression analysis in GraphPad PRISM® v8. Assays were performed in triplicate and repeated three times.

[4] = ref https://pubchem.ncbi.nlm.nih.gov, cited from earlier work; for Polar surface area: topological
C. parvum = experiment: In vitro anti-Cryptosporidium activity in infected HCT-8 cells (immunofluorescence assay); type: cell-based, Cryptosporidium parvum; details: for effect on in vitro proliferation and viability of C. parvum: 25 μM, added immediately after infection, 48 h of culture, vs untreated parasites; for EC50: Cryptosporidium parvum; for effect on proliferation of intracellular C. parvum in HCT-8 cells: varying concentrations, 0 h or 2 h PI, analysed 48 h PI, vs infected cultures without compound
Protocol: Once confluent, the cells were infected with 10^5 freshly excysted C. parvum sporozoites per well, immediately followed by the addition of anti-CpPyK compounds (reconstituted in DMSO) to one set of wells. Control infected cells were treated with DMSO volumes equivalent to those used for the compound-treated cultures. Paromomycin reconstituted in distilled sterile water, served as a positive control at a concentration of 200 μM. […] Briefly, the medium was removed from the culture wells, and the cells were washed two times with PBS before fixation with pre-chilled methanol-acetic acid (9:1) for 5 min at room temperature. Residual fixative was removed by rinsing the wells with PBS. Cells were rehydrated and permeabilized by washing twice with a buffer containing 0.1% Triton X-100, 0.35 M NaCl, and 0.13 M Tris-base, pH 7.6. Normal goat serum (5% in PBS) was used as a blocking agent, and the cell monolayer was stained with a fluorescein-labeled anti-C. parvum polyclonal antibody (Sporo-Glo™; Waterborne, Inc.) overnight at 4°C. The stained cells were washed twice with PBS followed by the addition of 200 μl water to each well. Plates were then imaged with an inverted fluorescence microscope using a 20× objective. The fluorescence generated by intracellular C. parvum parasites was quantified from nine microscopic fields per well of a 96-well plate using the batch process function in ImageJ version v1.50 (NIH, United States) after setting a threshold for the detection of parasites. Control wells with uninfected monolayers were included for background subtraction. Experiments were performed in triplicate and repeated at least three times.
One set of wells with confluent HCT-8 cells received CpPyK inhibitors immediately after C. parvum infection, while the same compounds were added to the other set of wells 2 h post-infection (PI). Control infected cells were treated with varying volumes of DMSO equivalent to the ones used for the compound-treated cultures. Cell monolayers were processed for immunofluorescence analysis after 48 h of incubation as described above. Samples were run in triplicate and three independent assays were performed. EC50 values were calculated using non-linear regression analysis of the mean dose-response curve data in GraphPad PRISM® v8.

rCpPyK = molecular target: T1, rCpPyK (Cryptosporidium parvum, UniProt Q5CSM7); details: previously reported for CpPyK; ref Denton et al. (1996); cited from earlier work
T1 sequence (Q5CSM7 7-532): B1 chain

[5] = substrate: Nc1ncnc2c1ncn2[C@@H]1O[C@H](COP(=O)(O)OP(=O)(O)O)[C@@H](O)[C@H]1O; experiment: rCpPyK enzyme kinetics on substrates (Michaelis–Menten); type: biochemical, Cryptosporidium parvum; details: other: 6 ng/μl rCpPyK, varying substrate; pH 7.5
Protocol: as §1

[6] = substrate: C=C(OP(=O)(O)O)C(=O)O; experiment: as above; type: biochemical, Cryptosporidium parvum; details: other: 6 ng/μl rCpPyK, varying substrate; pH 7.5
Protocol: as §1

[7] = HCT-8, read-out: Anti-C. parvum EC50, 0 h PI
[8] = HCT-8, read-out: Anti-C. parvum EC50, 2 h PI

Molecule | conformity to Lipinski's and Veber's rules for drug-likeness [1] | IC50 [2] [µM] | solubility (Solubility) | CC50 at 24 h [3] [µM] | Number of Hydrogen bond acceptors [4] | Number of Hydrogen bond donors [4] | Polar surface area [4] [Å²] | effect on in vitro proliferation and viability of C. parvum (C. parvum) | EC50 (C. parvum; [7]) [µM] | EC50 (C. parvum; [8]) [µM] | effect on proliferation of intracellular C. parvum in HCT-8 cells (C. parvum) | IC50 ([2]; 6 ng/μl rCpPyK, 3 h at room temperature, read-out: Enzyme inhibition IC50) [µM] | Selectivity index (CC50/EC50) (C. parvum; HCT-8 CC50 / anti-C. parvum EC50) | Km (rCpPyK) [µM] | Vmax (rCpPyK) [nmol/µg/min] | Km [5] [µM] | Vmax [5] [µmol/min/mg] | Km [6] | Vmax [6] [µmol/min/mg]
CN(C)c1ccc(/C=C/C(=O)c2cc(Cl)ccc2O)cc1 [NSC11437, (E)-1-(5-chloro-2-hydroxyphenyl)-3-[4-(dimethylamino)phenyl]prop-2-en-1-one] | conform | 156 | low solubility | 612 | 3 | 1 | 40.5 | significant inhibitory effect | 23.8 | 27.3 | significant (P < 0.05) concentration-dependent inhibitory effect | – | – | – | – | – | – | – | –
COc1cccc(/C=C2\CCc3ccccc3C2=O)c1 [NSC636718, (2E)-2-[(3-methoxyphenyl)methylidene]-3,4-dihydronaphthalen-1-one] | conform | – | – | 106 | 2 | 0 | 26.3 | significant inhibitory effect | 33.8 | 33.6 | significant (P < 0.05) concentration-dependent inhibitory effect | 117 | 3.15 | – | – | – | – | – | –
C=C(OP(=O)(O)O)C(=O)O [Phosphoenolpyruvate, phosphoenolpyruvate] | – | – | – | – | – | – | – | – | – | – | – | – | – | 320 | 6.82 | – | – | – | –
B1 | – | – | – | – | – | – | – | – | – | – | – | – | – | – | – | 40 | 4.64 | 1.29 (0.32^a) mM | 12.1
